The record followed here is US20210051963A1, “METHODS AND COMPOSITIONS TO IMPROVE PLANT HEALTH AND/OR PLANT PERFORMANCE” (PLANTRESPONSE BIOTECH, S.L., priority 2017, published 2021).

Test [1] deals with Sclerotinia sclerotiorum strain CH109. The test can be described thus: White mold disease index in tomato plants treated with PRBT, 6-HP-2CA or 6-OXO-2CA. In kind it is in vivo. Particulars: for disease index vs untreated inoculated tomato plants: PRBT 0.054 g L-1, 6-HP-2CA 0.1 g/l, 6-OXO-2CA 0.1 g/l, 10 and 14 dpi; for Disease Control (%) / Disease index (10 dpi) / Disease index (15 dpi): inoculated tomato var. Money Maker, PRBT 0.054 g/L, 6-HP-2CA or 6-OXO-2CA 0.1 g/L, 25 ml/plant; for Disease index (10 dpi) / Disease index (15 dpi): score 0-5. The protocol:
Tomato plants var. Money Maker were sown on Dec. 13, 2016, distributed in random blocks of 9 plants with 4 replicates (36 plants per treatment) and grown in a standard greenhouse. Treated plants were sprayed on Mar. 6, 2017 with 25 ml/plant at 3 ml/1 (0.054 g L^−1) of PRBT (with surfactant 2:1, v/w, antifoam and biocide) or with 25 ml (0.1 g L^−1) of 6-hydroxypiperidine-2-carboxylic acid (6-HP-2CA), or with 25 ml (0.1 g 1-1) of 6-oxopiperidine-2-carboxylic acid (6-OXO-2CA).
Two days later plants were inoculated with 25 ml/plant of a foliar spray of blended Sclerotinia sclerotiorum strain CH109 mycelium that had been grown to optical density at 600 nm of 0.8. Plants were kept at 100% relative humidity for seven days and then humidity was lowered to 80% for the rest of the experiment. Plants were then evaluated at 10 and 14 days post inoculation (dpi) according to a disease severity index score were 0 corresponds to no symptoms and 5 to a dead plant. No statistically significant differences among treatments with the same letter (LSD method, p=0.05)

The test system is the same in test [2]. The test can be described thus: White mold disease index in pepper plants treated with PRBT or 6-HP-2CA. In kind it is in vivo. To be noted: for Disease index 4 dpi / Disease index 6 dpi: inoculated pepper var. Murano, 10 ml/plant, score 0-4. The procedure:
Pepper plants var. Murano were sown on Oct. 20, 2016 and distributed in random blocks of 3 plants with 4 replicates (12 plants per treatment) and grown in a standard greenhouse. PRBT treated plants were sprayed on Nov. 23, 2016 with (0.038 g L^−1) PRBT at 10 ml/plant or with (0.01 g L^−1) 6-hydroxypiperidine-2-carboxylic acid (6-HP-2CA) or with (0.1 g L^−1) 6-HP-2CA or with (0.01 g L^−1) 6-HP-2CA formulated with an adjuvant or with (0.1 g L^−1) 6-HP-2CA (0.01 g L^−1) formulated with an adjuvant at 10 ml/plant. Two days later plants were inoculated with 10 ml/plant of a foliar spray of blended Sclerotinia sclerotiorum strain CH109 mycelium that had been grown to optical density at 600 nm of 1.7. Plants were kept at 100% relative humidity for four days and then humidity was lowered to 80% for the rest of the experiment. Plants were then evaluated 4, and 6 days post inoculation (dpi) according to a disease severity index score were 0 corresponds to no symptoms and 4 to a dead plant. No statistically significant differences among treatments with the same letter (LSD method, p=0.05)

On to `O=C1CCC[C@H](C(=O)O)N1` (stereo in doubt) [6-OXO-2CA, 6-oxopiperidine-2-carboxylic acid], for which, in test [1], the “disease index vs untreated inoculated tomato plants” value is recorded as “significantly lower”, the “Disease Control (%)” value is given as 10 c %, the “Disease index (10 dpi)” value worked out at 2.3 b and the “Disease index (15 dpi)” value is listed as 2.3 b.

For `O=C(O)C1CCCC(O)N1` (stereo not shown) [6-HP-2CA, 6-hydroxypiperidine-2-carboxylic acid], the “disease index vs untreated inoculated pepper plants” value in test [2] (high (0.1 g/L) concentration) is “significantly lower”. Moreover, in test [2] (0.01 g/L), the “Disease index 4 dpi” value was found to be 0.9 b and the “Disease index 6 dpi” value was 2.3 b. For the same compound, in test [2] (0.1 g/L), the “Disease index 4 dpi” value is reported as 0.2 a and the “Disease index 6 dpi” value is given as 0.5 a. In addition, in test [1], the “disease index vs untreated inoculated tomato plants” value is reported as “significantly lower”, the “Disease Control (%)” value was found to be 11 c %, the “Disease index (10 dpi)” value was found to be 2.2 b and the “Disease index (15 dpi)” value came to 2.2 b.
